According to ChEMBL document CHEMBL3351874, “Rational design of inhibitors of the bacterial cell wall synthetic enzyme GlmU using virtual screening and lead-hopping” (Bioorg Med Chem, 2014):
pIC50: −log10 of the molar value. Calls of active or inactive are those of the source. The calls are words filed in the database; no cut-off is given here.

Legend:
[1] = molecular target: Bifunctional protein GlmU (Escherichia coli, UniProt C3SLB7); experiment: Inhibition of Escherichia coli ATCC 27325 GlmU expressed in Escherichia coli HMS174(DE3) incubated for 15 mins prior to MgCl2 addition measured after 30 mins by malachite green staining-based assay
Bifunctional protein GlmU, sequence (C3SLB7 whole entry): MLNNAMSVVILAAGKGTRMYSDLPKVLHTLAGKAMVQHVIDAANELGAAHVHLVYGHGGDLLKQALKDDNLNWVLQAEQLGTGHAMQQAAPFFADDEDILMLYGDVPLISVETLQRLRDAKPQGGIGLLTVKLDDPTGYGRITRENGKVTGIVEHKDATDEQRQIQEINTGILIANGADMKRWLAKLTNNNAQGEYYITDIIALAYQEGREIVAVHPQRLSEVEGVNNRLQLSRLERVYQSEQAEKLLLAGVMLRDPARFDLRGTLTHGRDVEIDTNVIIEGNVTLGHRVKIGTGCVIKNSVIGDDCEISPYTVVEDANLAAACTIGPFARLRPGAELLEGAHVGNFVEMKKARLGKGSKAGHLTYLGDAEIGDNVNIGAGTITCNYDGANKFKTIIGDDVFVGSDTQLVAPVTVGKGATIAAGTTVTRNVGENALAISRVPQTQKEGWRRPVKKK

[2] = Inhibition of Haemophilus influenzae ATCC 51907 GlmU expressed in Escherichia coli BL21(DE3) incubated for 15 mins prior to MgCl2 addition measured after 30 mins by malachite green staining-based assay
[3] = Serum protein binding in human at 10 uM after 30 mins by ultrafiltration method; format: ADME; settings: read-out: PB (converted)
Aurora kinase B = Aurora kinase B (Homo sapiens, UniProt Q96GD4); experiment: Inhibition of human AURKB incubated for 20 mins prior to MgCl2 addition measured after 90 mins by mobility shift assay
Aurora kinase B, sequence (Q96GD4 whole entry): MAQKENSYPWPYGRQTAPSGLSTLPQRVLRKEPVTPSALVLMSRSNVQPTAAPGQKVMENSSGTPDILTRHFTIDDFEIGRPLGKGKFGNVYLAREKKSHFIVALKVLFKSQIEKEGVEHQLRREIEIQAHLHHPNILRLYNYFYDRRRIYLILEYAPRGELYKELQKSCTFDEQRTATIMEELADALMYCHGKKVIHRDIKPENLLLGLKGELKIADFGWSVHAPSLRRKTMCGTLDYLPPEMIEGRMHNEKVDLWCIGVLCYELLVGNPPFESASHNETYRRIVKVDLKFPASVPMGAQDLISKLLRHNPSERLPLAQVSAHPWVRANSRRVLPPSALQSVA

[4] = molecular target: T1, Interleukin-1 receptor-associated kinase 4 (Homo sapiens, UniProt Q9NWZ3); experiment: Inhibition of human IRAK4 incubated for 20 mins prior to MgCl2 addition measured after 90 mins by mobility shift assay
T1 sequence (Q9NWZ3 whole entry): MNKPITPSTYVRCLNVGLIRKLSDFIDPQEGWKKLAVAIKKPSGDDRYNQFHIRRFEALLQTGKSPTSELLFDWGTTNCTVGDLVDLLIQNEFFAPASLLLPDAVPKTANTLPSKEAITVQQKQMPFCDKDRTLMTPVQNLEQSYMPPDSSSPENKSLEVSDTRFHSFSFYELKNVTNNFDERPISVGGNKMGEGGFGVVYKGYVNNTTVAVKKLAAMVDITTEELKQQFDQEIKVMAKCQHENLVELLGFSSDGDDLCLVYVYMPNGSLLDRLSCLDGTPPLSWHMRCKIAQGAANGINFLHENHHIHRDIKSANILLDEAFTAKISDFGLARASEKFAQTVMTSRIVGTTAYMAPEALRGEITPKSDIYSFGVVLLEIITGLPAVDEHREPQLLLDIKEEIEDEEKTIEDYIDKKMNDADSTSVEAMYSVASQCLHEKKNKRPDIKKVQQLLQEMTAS

[5] = molecular target: Interleukin-1 receptor-associated kinase 1 (Homo sapiens, UniProt P51617); experiment: Inhibition of human IRAK1 incubated for 20 mins prior to MgCl2 addition measured after 90 mins by mobility shift assay
Interleukin-1 receptor-associated kinase 1, sequence (P51617 whole entry): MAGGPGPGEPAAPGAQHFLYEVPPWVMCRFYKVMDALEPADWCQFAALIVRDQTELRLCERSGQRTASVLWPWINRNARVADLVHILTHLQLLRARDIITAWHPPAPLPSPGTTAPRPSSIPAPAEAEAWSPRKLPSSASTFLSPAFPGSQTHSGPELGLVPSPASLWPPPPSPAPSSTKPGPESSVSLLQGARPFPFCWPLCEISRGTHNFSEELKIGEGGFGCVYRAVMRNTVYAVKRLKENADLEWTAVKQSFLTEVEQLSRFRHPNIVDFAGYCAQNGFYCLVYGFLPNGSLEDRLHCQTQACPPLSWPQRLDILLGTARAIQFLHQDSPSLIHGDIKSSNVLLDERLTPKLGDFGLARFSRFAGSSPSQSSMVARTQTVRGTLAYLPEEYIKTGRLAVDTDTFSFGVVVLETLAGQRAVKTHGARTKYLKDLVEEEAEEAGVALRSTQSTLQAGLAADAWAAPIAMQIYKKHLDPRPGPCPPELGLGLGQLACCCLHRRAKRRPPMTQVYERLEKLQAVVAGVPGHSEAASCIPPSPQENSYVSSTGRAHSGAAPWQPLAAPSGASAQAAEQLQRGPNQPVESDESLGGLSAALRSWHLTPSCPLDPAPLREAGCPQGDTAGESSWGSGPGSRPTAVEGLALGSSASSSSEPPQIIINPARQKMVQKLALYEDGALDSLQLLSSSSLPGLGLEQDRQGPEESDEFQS

[6] = molecular target: Tyrosine-protein kinase JAK1 (Homo sapiens, UniProt P23458); experiment: Inhibition of human JAK1 incubated for 20 mins prior to MgCl2 addition measured after 90 mins by mobility shift assay
Tyrosine-protein kinase JAK1, sequence (P23458 whole entry): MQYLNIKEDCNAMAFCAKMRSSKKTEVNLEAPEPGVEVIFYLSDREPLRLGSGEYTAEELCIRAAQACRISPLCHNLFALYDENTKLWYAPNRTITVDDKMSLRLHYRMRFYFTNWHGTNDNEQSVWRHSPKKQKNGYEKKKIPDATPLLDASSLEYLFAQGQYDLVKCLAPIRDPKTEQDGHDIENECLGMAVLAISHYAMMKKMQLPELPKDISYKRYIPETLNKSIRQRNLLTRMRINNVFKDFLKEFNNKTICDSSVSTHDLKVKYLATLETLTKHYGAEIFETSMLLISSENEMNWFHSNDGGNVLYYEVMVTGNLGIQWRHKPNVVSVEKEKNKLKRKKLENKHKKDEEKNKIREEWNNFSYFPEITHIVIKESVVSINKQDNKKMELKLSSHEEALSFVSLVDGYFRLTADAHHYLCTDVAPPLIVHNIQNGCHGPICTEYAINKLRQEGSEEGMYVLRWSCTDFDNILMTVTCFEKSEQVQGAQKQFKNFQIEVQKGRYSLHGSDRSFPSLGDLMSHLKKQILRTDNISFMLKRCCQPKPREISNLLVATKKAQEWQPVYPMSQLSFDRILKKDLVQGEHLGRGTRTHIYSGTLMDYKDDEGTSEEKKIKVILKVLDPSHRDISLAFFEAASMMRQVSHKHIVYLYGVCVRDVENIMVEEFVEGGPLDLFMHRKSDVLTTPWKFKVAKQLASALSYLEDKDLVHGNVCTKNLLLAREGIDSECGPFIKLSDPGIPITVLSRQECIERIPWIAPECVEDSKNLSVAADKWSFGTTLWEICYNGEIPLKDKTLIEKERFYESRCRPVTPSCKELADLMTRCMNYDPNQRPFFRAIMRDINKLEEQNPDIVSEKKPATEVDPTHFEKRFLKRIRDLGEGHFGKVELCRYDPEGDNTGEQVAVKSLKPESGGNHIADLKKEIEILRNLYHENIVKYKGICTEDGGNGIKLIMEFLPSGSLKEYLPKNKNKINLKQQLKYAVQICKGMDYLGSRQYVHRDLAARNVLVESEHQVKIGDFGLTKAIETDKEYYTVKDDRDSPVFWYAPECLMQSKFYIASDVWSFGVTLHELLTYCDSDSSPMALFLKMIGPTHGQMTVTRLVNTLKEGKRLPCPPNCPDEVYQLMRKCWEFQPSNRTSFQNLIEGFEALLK

[7] = molecular target: Tyrosine-protein kinase JAK2 (Homo sapiens, UniProt O60674); experiment: Inhibition of human JAK2 incubated for 20 mins prior to MgCl2 addition measured after 90 mins by mobility shift assay
Tyrosine-protein kinase JAK2, sequence (O60674 whole entry): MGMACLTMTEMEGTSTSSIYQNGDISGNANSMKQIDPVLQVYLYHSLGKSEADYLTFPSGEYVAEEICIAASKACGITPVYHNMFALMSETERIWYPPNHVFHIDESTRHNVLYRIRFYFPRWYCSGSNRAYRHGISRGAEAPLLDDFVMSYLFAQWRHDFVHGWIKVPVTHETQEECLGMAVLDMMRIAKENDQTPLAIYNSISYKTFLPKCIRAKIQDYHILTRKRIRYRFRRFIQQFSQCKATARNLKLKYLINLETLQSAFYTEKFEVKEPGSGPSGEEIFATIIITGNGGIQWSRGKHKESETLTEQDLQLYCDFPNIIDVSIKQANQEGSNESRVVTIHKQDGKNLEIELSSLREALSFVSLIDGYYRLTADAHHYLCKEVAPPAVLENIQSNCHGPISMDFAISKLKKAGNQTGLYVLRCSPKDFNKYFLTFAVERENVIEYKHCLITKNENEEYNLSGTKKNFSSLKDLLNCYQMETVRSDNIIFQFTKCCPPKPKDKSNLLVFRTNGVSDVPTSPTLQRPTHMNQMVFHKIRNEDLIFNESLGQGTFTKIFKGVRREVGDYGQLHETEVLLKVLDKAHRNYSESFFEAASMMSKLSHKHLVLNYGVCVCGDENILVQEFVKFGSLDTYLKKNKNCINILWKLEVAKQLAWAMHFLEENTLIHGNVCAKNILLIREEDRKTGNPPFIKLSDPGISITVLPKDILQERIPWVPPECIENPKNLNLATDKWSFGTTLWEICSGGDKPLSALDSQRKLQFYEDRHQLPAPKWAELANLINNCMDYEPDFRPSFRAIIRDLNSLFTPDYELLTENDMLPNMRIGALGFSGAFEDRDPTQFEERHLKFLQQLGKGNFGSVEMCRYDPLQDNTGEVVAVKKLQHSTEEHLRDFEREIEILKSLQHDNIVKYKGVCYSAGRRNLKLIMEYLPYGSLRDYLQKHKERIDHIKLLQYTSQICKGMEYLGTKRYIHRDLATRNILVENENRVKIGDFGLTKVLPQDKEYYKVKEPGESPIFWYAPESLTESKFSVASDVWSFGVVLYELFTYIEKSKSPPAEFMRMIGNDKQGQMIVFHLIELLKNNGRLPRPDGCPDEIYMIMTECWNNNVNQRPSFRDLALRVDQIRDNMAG

[8] = molecular target: T2, Tyrosine-protein kinase JAK3 (Homo sapiens, UniProt P52333); experiment: Inhibition of human JAK3 incubated for 20 mins prior to MgCl2 addition measured after 90 mins by mobility shift assay
T2 sequence (P52333 whole entry): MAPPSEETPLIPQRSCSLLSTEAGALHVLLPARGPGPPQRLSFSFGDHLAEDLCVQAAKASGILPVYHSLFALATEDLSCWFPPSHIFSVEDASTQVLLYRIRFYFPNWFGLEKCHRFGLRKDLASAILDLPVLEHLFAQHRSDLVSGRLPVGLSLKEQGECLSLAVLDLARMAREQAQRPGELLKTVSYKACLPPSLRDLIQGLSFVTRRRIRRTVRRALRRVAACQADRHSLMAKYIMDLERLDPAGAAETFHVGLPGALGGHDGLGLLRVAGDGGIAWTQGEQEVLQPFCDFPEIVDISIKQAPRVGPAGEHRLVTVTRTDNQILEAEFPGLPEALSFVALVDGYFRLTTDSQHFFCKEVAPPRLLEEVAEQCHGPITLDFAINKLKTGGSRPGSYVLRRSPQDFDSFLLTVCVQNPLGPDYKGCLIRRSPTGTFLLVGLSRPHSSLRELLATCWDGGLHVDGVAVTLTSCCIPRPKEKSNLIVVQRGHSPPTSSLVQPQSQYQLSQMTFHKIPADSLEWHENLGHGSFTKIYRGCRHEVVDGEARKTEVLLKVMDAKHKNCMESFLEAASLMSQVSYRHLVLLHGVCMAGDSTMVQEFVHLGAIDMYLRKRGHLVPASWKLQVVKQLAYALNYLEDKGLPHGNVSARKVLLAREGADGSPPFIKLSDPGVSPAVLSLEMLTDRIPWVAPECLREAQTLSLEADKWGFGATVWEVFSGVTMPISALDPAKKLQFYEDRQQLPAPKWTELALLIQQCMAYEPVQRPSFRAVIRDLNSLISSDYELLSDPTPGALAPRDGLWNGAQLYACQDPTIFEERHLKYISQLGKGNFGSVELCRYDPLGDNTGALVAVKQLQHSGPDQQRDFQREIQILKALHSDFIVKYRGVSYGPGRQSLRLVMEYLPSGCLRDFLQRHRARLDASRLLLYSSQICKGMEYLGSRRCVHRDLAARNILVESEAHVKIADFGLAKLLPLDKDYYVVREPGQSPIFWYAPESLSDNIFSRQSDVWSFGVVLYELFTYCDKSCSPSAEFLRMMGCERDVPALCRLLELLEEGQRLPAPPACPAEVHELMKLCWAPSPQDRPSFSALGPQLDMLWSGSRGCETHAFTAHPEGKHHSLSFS

[9] = molecular target: Cyclin-dependent kinase 1 (Homo sapiens, UniProt P06493); experiment: Inhibition of human CDK1 incubated for 20 mins prior to MgCl2 addition measured after 90 mins by mobility shift assay
Cyclin-dependent kinase 1, sequence (P06493 whole entry): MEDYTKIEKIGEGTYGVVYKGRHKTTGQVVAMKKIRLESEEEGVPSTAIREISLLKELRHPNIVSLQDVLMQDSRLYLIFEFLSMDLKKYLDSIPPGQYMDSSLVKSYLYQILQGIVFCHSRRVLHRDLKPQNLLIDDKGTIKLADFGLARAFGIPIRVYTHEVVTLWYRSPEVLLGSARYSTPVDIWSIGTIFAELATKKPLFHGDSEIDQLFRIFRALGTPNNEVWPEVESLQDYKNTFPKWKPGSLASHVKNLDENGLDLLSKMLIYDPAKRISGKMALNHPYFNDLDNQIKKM

[10] = molecular target: Cyclin-dependent kinase 2 (Homo sapiens, UniProt P24941); experiment: Inhibition of human CDK2 incubated for 20 mins prior to MgCl2 addition measured after 90 mins by mobility shift assay
[11] = molecular target: Cyclin-dependent kinase 9 (Homo sapiens, UniProt P50750); experiment: Inhibition of human CDK9 incubated for 20 mins prior to MgCl2 addition measured after 90 mins by mobility shift assay
Cyclin-dependent kinase 9, sequence (P50750 whole entry): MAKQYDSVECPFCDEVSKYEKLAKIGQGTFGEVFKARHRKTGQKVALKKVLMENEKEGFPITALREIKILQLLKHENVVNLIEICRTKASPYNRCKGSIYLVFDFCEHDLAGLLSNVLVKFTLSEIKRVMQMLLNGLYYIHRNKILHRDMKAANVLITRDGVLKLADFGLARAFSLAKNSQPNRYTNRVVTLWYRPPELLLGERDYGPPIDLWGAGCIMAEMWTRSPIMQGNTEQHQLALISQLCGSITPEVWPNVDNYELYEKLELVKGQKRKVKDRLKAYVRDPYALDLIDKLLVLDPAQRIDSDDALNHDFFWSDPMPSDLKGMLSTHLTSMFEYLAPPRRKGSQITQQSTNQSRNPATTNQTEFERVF

Streptococcus pneumoniae = experiment: Antibacterial activity against Streptococcus pneumoniae after 18 to 24 hrs by agar dilution method; format: functional, organism-based
Streptococcus pyogenes = experiment: Antibacterial activity against Streptococcus pyogenes after 18 to 24 hrs by agar dilution method; format: functional, organism-based
Haemophilus influenzae = experiment: Antibacterial activity against Haemophilus influenzae after 18 to 24 hrs by agar dilution method; format: functional, organism-based
Moraxella catarrhalis = experiment: Antibacterial activity against Moraxella catarrhalis after 18 to 24 hrs by agar dilution method; format: functional, organism-based

Structure (SMILES) | pIC50 [1] | pIC50 [2] | fraction unbound at 0.5 h, 10 µM [3] | pIC50 (Aurora kinase B) | pIC50 [4] | pIC50 [5] | pIC50 [6] | pIC50 [7] | pIC50 [8] | pIC50 [9] | pIC50 [10] | pIC50 [11] | Activity (Streptococcus pneumoniae) | Activity (Streptococcus pyogenes) | Activity (Haemophilus influenzae) | Activity (Moraxella catarrhalis)
CCNC(=O)Nc1ccc(NC(=O)c2cc(OC)cc(-c3c[nH]c(=O)[nH]c3=O)c2)cc1 | 6.01 | 7.11 | 0.159 | 4.74 | < 4.52 | < 4.52 | < 4.52 | < 4.52 | < 4.52 | < 4.52 | < 4.52 | < 4.52 | inactive | inactive | inactive | inactive
COc1cc(C(=O)Nc2ccc(NC(=O)C3CCCCN3)cc2)cc(-c2c[nH]c(=O)[nH]c2=O)c1 (stereo not drawn) | 6.92 | 7.30 | 0.395 | < 4.52 | < 4.52 | < 4.52 | < 4.52 | < 4.52 | < 4.52 | < 4.52 | < 4.52 | < 4.52 | inactive | inactive | inactive | inactive
O=C(Nc1ccc(NC(=O)c2ccccn2)cc1)c1cccc(-c2c[nH]c(=O)[nH]c2=O)c1 | 6.46 | 8.30 | 0.019 | 5.12 | < 4.52 | < 4.52 | < 4.52 | < 4.52 | < 4.52 | < 4.52 | < 4.52 | < 4.52 | – | – | – | –
COc1ccc(C(=O)Nc2ccc(NC(=O)c3ccccn3)cc2)cc1-c1c[nH]c(=O)[nH]c1=O | < 4.66 | 6.02 | < 0.01 | < 4.52 | < 4.52 | < 4.52 | < 4.52 | < 4.52 | < 4.52 | < 4.52 | < 4.52 | < 4.52 | – | – | – | –
COc1cc(C(=O)Nc2ccc(NC(=O)c3ccccn3)cc2)ccc1O | 5.09 | 6.29 | 0.016 | 5.23 | < 4.52 | < 4.52 | < 4.52 | < 4.52 | < 4.52 | < 4.52 | < 4.52 | < 4.52 | – | – | – | –
